Drawing on patent US9573954B2, “Pyrazolopyrimidine compounds” (University Health Network, priority 2012, dated 2017), this text covers GI50 and IC50 for 26 compounds.

The test system of assay [1] is colon cancer cells (HCT116). The experiment in a line: Cancer cell line growth inhibition, Sulforhodamine B assay, HCT116. The format is cell-based. Conditions: Homo sapiens, HCT-116, HCT116 colon cancer cell line; read-out: Cancer Cell Line GI50 Range HCT116. In a few lines: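 HCT116 cells, 1000–4000 per well, seeded 24 h ahead, then treated 5 days with compound at 10 nM to 50 μM final in DMEM with 10% FBS. Growth measured by sulforhodamine B staining after TCA fixation, A570; GI50 from inhibition relative to DMSO-only cells.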

In a further assay the target is T1, human TTK (Homo sapiens, UniProt P33981).
T1 construct: Active TTK was purchased from Invitrogen as an amino terminal GST fusion of full length human TTK; purchased Invitrogen
T1 sequence (P33981 1-857): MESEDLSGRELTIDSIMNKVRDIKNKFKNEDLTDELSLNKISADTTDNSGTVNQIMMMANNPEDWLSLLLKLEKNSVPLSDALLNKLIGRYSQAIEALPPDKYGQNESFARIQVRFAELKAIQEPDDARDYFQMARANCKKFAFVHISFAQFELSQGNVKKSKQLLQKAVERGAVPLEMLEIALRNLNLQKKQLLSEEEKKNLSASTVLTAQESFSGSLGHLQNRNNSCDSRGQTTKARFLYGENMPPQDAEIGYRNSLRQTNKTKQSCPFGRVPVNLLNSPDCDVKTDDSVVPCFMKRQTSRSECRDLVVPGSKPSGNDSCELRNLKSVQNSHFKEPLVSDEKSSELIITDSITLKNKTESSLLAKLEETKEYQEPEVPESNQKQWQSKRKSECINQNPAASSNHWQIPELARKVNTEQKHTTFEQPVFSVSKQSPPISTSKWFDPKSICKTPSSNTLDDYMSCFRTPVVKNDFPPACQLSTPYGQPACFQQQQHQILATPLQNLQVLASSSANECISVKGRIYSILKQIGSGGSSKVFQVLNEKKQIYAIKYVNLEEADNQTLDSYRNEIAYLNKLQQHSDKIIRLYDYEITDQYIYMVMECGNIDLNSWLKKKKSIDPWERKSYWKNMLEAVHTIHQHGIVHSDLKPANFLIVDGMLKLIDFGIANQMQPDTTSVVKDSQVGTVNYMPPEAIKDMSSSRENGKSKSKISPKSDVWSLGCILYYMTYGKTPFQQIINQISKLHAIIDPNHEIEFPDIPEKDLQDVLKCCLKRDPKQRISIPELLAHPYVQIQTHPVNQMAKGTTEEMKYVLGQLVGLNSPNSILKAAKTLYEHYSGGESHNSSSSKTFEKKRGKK
Nature of the assay: TTK inhibition assay (indirect ELISA). Format: biochemical. The conditions noted are these: 100 μM ATP; read-out: TTK IC50 Range. The method in brief:
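Activity detected by indirect ELISA after compounds sat with full-length GST-TTK for 5 min prior to starting the reaction with ATP. IC50 came from a four-parameter logistic curve of % inhibition, calculated against background and uninhibited control wells.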
(In general: In an ELISA, binding on a coated surface is turned into a signal by an enzyme label.)

Assay [2] concerns breast cancer cells (MDA-MB-468). The experiment in a line: Cancer cell line growth inhibition, Sulforhodamine B assay, MDA-MB-468. The format is cell-based. Conditions: Homo sapiens, MDA-MB-468, MDA-MB-468 breast cancer cell line; read-out: Cancer Cell Line GI50 Range MDA-MB-468. The method in brief: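 MDA-MB-468 cells exposed 5 days to compound at final 10 nM to 50 μM in DMEM with 10% FBS. Growth measured by sulforhodamine B protein staining after TCA fixation, absorbance 570 nm; inhibition relative to DMSO-only cells, GI50 determined for cytotoxic compounds.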

Assay [3] deals with ovarian cancer cells (OVCAR-3). The experiment in a line: Cancer cell line growth inhibition, Sulforhodamine B assay, OVCAR-3. The format is cell-based. The conditions noted are these: Homo sapiens, OVCAR-3, OVCAR-3 ovarian cancer cell line; read-out: Cancer Cell Line GI50 Range OVCAR-3. The method in brief: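 OVCAR-3 cells were seeded 24 h before compound addition, then exposed for 5 days to final concentrations of 10 nM to 50 μM in DMEM with 10% FBS. Growth was measured by TCA fixation and sulforhodamine B staining with absorbance at 570 nm. Inhibition was relative to DMSO-only cells, and GI50 came from curve fitting.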
On the technique in general: The SRB assay estimates cell density from bound dye.

Structures are written as SMILES. A value given as a limit tells only on which side of the number the result lay.

For orientation: GI50 means the concentration at which growth is held to half of that of the control. For orientation: IC50 means the concentration that gives 50% inhibition. Regarding `Cc1cc(-c2cnn3c(NCC4CC4)cc(NC4CCOCC4)nc23)ccc1C(=O)NC1CC1` [Example C153], the GI50 in assay [1] is at most 100 nM; in assay [2], 100 to 500 nM; in assay [3], 100 to 500 nM. Besides, the IC50 on human TTK is below 100 nM.

For `Cc1cc(-c2cnn3c(NC[C@H]4CC[C@@H](O)CC4)cc(NC4CCOCC4)nc23)ccc1C(=O)NC1CC1` [Example C179], the GI50 in assay [1], in assay [2] and in assay [3] was at most 100 nM each time. Also, the IC50 on human TTK is below 100 nM.

As for `Cc1cc(-c2cnn3c(NCC4(F)CCNCC4)cc(NC4CCCC4)nc23)ccc1C(=O)NC1CC1` [Example C169], the GI50 is 100 to 500 nM in assay [1], above 500 nM in assay [2] and above 500 nM in assay [3]. The IC50 at human TTK is below 100 nM.

Turning to `Cc1cc(-c2cnn3c(NCCCn4ccnc4)cc(Oc4ccccc4)nc23)ccc1C(=O)NC1CC1` [Example C61], the GI50 in assay [1], in assay [2] and in assay [3] was at most 100 nM throughout. Further, the IC50 on human TTK is below 100 nM.

Regarding `Cc1cc(-c2cnn3c(NCC4CCOCC4)cc(N4CCC[C@@H]4CO)nc23)ccc1C(=O)NC1CC1` [Example C164], the GI50 is 100 to 500 nM in assay [1], 100 to 500 nM in assay [2] and above 500 nM in assay [3]. In addition, at human TTK, the IC50 is below 100 nM.

As to `Cc1cc(-c2cnn3c(NCC4CCOCC4)cc(NCC4CCOCC4)nc23)ccc1C(=O)NC1CC1` [Example C57], the GI50 in assay [1], in assay [2] and in assay [3] was 100 to 500 nM each time. For the same compound, the 50% inhibitory concentration (IC50) at human TTK is below 100 nM.

Take `Cc1cc(-c2cnn3c(NCC4CCOCC4)cc(NC4CCC4)nc23)ccc1C(=O)NC1CC1` [Example C109]: the GI50 in assay [1] was at most 100 nM; in assay [2], 100 to 500 nM; in assay [3] it was 100 to 500 nM. The IC50 at human TTK is below 100 nM.

For `COc1cccc(Oc2cc(NCCN3CCOCC3)n3ncc(-c4ccc(C(=O)NC5CC5)c(C)c4)c3n2)c1` [Example C85], the GI50 in assay [1], in assay [2] and in assay [3] was 100 to 500 nM in each case. For the same compound, the IC50 on human TTK was below 100 nM.

Consider `Cc1cc(-c2cnn3c(NCc4cccnc4)cc(OC4CCOCC4)nc23)ccc1C(=O)NC1CC1` [Example C52], for which the results for the GI50 in assay [1], in assay [2] and in assay [3] were 100 to 500 nM, 100 to 500 nM and above 500 nM, respectively. For the same compound, the IC50 on human TTK was below 100 nM.

`CC[C@H](Nc1cc(NCC2CCOCC2)n2ncc(-c3ccc(C(=O)NC4CC4)c(C)c3)c2n1)C(C)(C)O` [Example C127]: the GI50 in assay [1] is at most 100 nM; in assay [2] it was 100 to 500 nM; in assay [3] it was 100 to 500 nM. The IC50 at human TTK is below 100 nM.

Take `Cc1cc(-c2cnn3c(NCC4CCOCC4)cc(Oc4cncc(F)c4)nc23)ccc1C(=O)NC1CC1` [Example C56]: the GI50 in assay [1], in assay [2] and in assay [3] was at most 100 nM in each case. For the same compound, the IC50 at human TTK is below 100 nM.

Take `Cc1cc(-c2cnn3c(NCC4(F)CCN(C)CC4)cc(OC4CCCC4)nc23)ccc1C(=O)NC1CC1` [Example C174]: the GI50 in assay [1] was 100 to 500 nM; in assay [2], above 500 nM; in assay [3], above 500 nM. Moreover, the IC50 at human TTK is below 100 nM.

As to `Cc1cc(-c2cnn3c(NC[C@H]4C[C@](C)(O)C4)cc(NC4CCCC4)nc23)ccc1C(=O)NC1CC1` [Example C186], the GI50 in assay [1] is at most 100 nM; in assay [2], 100 to 500 nM; in assay [3], 100 to 500 nM. Also, the IC50 at human TTK was below 100 nM.

Turning to `Cc1cc(-c2cnn3c(NCC4CC4)cc(NC4(CO)CCCC4)nc23)ccc1C(=O)NC1CC1` [Example C148], the values for the GI50 in assay [1], in assay [2] and in assay [3] were 100 to 500 nM, 100 to 500 nM and above 500 nM, respectively. Moreover, the IC50 on human TTK was below 100 nM.

In the case of `Cc1cc(-c2cnn3c(NCC4CCOCC4)cc(N[C@H](CO)C4CCCCC4)nc23)ccc1C(=O)NC1CC1` [Example C163], the GI50 in assay [1] is at most 100 nM; in assay [2], 100 to 500 nM; in assay [3] it was 100 to 500 nM. The IC50 at human TTK was below 100 nM.

With `Cc1cc(-c2cnn3c(NCC4CCOCC4)cc(Oc4ccc[n+]([O-])c4)nc23)ccc1C(=O)NC1CC1` [Example C30, 3-((3-(4-(cyclopropylcarbamoyl)-3-methylphenyl)-7-(((tetrahydro-2H-pyran-4-yl)methyl)amino)pyrazolo[1,5-a]pyrimidin-5-yl)oxy)pyridine-1-oxide], the GI50 in assay [1], in assay [2] and in assay [3] was above 500 nM in each case. The IC50 on human TTK is below 100 nM.

Consider `Cc1cc(-c2cnn3c(NCCN4CCN(C)CC4)cc(Oc4cccc(F)c4)nc23)ccc1C(=O)NC1CC1` [Example C178], for which the GI50 is at most 100 nM in assay [1], at most 100 nM in assay [2] and 100 to 500 nM in assay [3]. In addition, the IC50 at human TTK is below 100 nM.

Turning to `Cc1cc(-c2cnn3c(NCCN4CCOCC4)cc(NC4CCCC4)nc23)ccc1C(=O)NC1CC1` [Example C77], the GI50 in assay [1], in assay [2] and in assay [3] was 100 to 500 nM in each case. Besides, at human TTK, the IC50 was below 100 nM.

As to `Cc1cc(-c2cnn3c(NCC4CCOCC4)cc(NCCN4CCOCC4)nc23)ccc1C(=O)NC1CC1` [Example C114], the GI50 in assay [1], in assay [2] and in assay [3] was above 500 nM in each case. Further, at human TTK, the IC50 is below 100 nM.

On to `Cc1cc(-c2cnn3c(NCC(C)C)cc(N[C@H]4CCCC[C@H]4O)nc23)ccc1C(=O)NC1CC1` [Example C157], for which the GI50 in assay [1], in assay [2] and in assay [3] was at most 100 nM throughout. The IC50 at human TTK was below 100 nM.

With `Cc1cc(-c2cnn3c(NCCN4CCOCC4)cc(Oc4cccc(Cl)c4)nc23)ccc1C(=O)NC1CC1` [Example C97], the GI50 was at most 100 nM in assay [1], 100 to 500 nM in assay [2] and 100 to 500 nM in assay [3]. Moreover, the IC50 at human TTK is below 100 nM.

For `Cc1cc(-c2cnn3c(NCC4CCOCC4)cc(N4CCC[C@H]4CO)nc23)ccc1C(=O)NC1CC1` [Example C161], the GI50 is at most 100 nM in assay [1], 100 to 500 nM in assay [2] and 100 to 500 nM in assay [3]. On human TTK, the IC50 is below 100 nM.

Turning to `Cc1cc(-c2cnn3c(NCC4CCOCC4)cc(-c4ccnn4C)nc23)ccc1C(=O)NC1CC1` [Example C151], the GI50 in assay [1] is at most 100 nM; in assay [2] it was 100 to 500 nM; in assay [3], 100 to 500 nM. The IC50 at human TTK is below 100 nM.

In the case of `Cc1cc(-c2cnn3c(NCC4CCOCC4)cc(NC4(CO)CC4)nc23)ccc1C(=O)NC1CC1` [Example C139], the GI50 in assay [1], in assay [2] and in assay [3] was 100 to 500 nM each time. Besides, on human TTK, the IC50 is below 100 nM.

Consider `Cc1cc(-c2cnn3c(NCC4CCOCC4)cc(NC4CC5(COC5)C4)nc23)ccc1C(=O)NC1CC1` [Example C141], for which the GI50 in assay [1] was at most 100 nM; in assay [2], 100 to 500 nM; in assay [3], 100 to 500 nM. For the same compound, the half-inhibitory concentration (IC50) at human TTK was below 100 nM.

Turning to `Cc1cc(-c2cnn3c(NCC4CCOCC4)cc(N[C@H]4CCC[C@@H]4O)nc23)ccc1C(=O)NC1CC1` [Example C123], the GI50 in assay [1] is at most 100 nM; in assay [2] it was at most 100 nM; in assay [3] it was 100 to 500 nM. In addition, the IC50 on human TTK was below 100 nM.
